Measured values published in patent US6337064B1, “Manganese chelates with high relaxivity in serum” (Dibra S.p.A., priority 1998, dated 2002).
Read-outs that look alike come from different tables or passages of the source.

What was measured:
[1] = Relaxivity in aqueous solution; assay type: physicochemical; settings: for Relaxivity r1, aqueous solution: 0.15 M NaCl aqueous solution, 20 MHz, 39° C.; for Relaxivity r1 5 MHz, aqueous solution / Relaxivity r1 10 MHz, aqueous solution: same experimental conditions as Table 1
Experimental: (§1) The relaxivity of the compounds of the invention was measured both in saline solution and in human serum, reconstituted from Seronorm^(R) Human (Nycomed Pharma), lyophilized human serum, and the resulting data are summarized in TABLES 1 and 2.
(§2) TABLE 1 reports the relativity values measured for some compounds of the invention at 20 MHz; the other experimental conditions used are detailed following the table itself.
(§3) TABLE 2 comprises the results obtained from tests carried out under the same experimental conditions as above and in which r1 and r2 relaxivities were measured in serum and in aqueous solution at lower fields, precisely at 5 and 10 MHz. Said data evidence the significant increase in relaxivity obtained in serum already at 5 MHz and are indicative of the potential advantageous use of the compounds of the invention in M.R.I. diagnostic imaging at low fields.

[2] = Relaxivity in human serum reconstituted from Seronorm Human; assay type: physicochemical; settings: for Relaxivity r1 5 MHz, Seronorm / Relaxivity r1 10 MHz, Seronorm: same experimental conditions as Table 1; for Relaxivity r1, Seronorm Human: calculated between 0 and 1 mM, 20 MHz, 39° C.
Experimental: as §1, §2, §3

[3] = 40° C.; 20 MHz; aqueous solution containing 20 mol % calcium ascorbate and 3 eq. of Na^+; cited from earlier work
[4] = biodistribution study; Investigative Radiology 1994, 29(2), S249-S250; cited from earlier work
[5] = in the presence of calcium and magnesium ions; MRM 1996, 35, 14-19; cited from earlier work

Relaxivity r1, aqueous solution ([1]; pH 4)	Relaxivity r1, Seronorm Human ([2]; pH 7.0)	Structure (SMILES)	Relaxivity r1, aqueous solution ([1]; pH 7.3)	Relaxivity r1 5 MHz, aqueous solution [1]	Relaxivity r1 10 MHz, aqueous solution [1]	Relaxivity r1 5 MHz, Seronorm [2]	Relaxivity r1 10 MHz, Seronorm [2]	Relaxivity r1, Seronorm Human [2]	Relaxivity r1, aqueous solution [3]	Stability of the complex in vivo [4]	Stability of the complex in liver homogenate [5]
		C[NH2+]C[C@H](O)[C@@H](O)[C@H](O)[C@H](O)CO.C[NH2+]C[C@H](O)[C@@H](O)[C@H](O)[C@H](O)CO.O=C([O-])CN(CCN(CC(=O)[O-])[C@H](Cc1ccccc1)C(=O)[O-])CC(=O)[O-].[Mn+2] [Example 1, Manganese complex of N-[2-[bis(carboxymethyl)-amino]ethyl]-N-(carboxymethyl)-D-phenylalanine salified with 1-deoxy-1-(methylamino)-D-glucitol (1:2)]	2.93^6) mM^−1 s^−1	4.3 mM⁻¹ s⁻¹	3.7 mM⁻¹ s⁻¹	11.8 mM⁻¹ s⁻¹	12.8 mM⁻¹ s⁻¹	15^(7) mM^−1 s^−1			
		C[NH2+]C[C@H](O)[C@@H](O)[C@H](O)[C@H](O)CO.C[NH2+]C[C@H](O)[C@@H](O)[C@H](O)[C@H](O)CO.O=C([O-])CN(CCN(CC(=O)[O-])[C@@H](Cc1ccccc1)C(=O)[O-])[C@@H](Cc1ccccc1)C(=O)[O-].[Mn+2] [Example 2, Manganese complex of [N,N′-1,2-ethanediylbis [N-(carboxymethyl)-L-phenylalanine]] salified with 1-deoxy-1-(methylamino)-D-glucitol (1:2)]	3.15^(6) mM^−1 s^−1	4.5 mM⁻¹ s⁻¹	3.9 mM⁻¹ s⁻¹	19.9 mM⁻¹ s⁻¹	26.1 mM⁻¹ s⁻¹	27^(7) mM^−1 s^−1			
		Cc1ncc(COP(=O)(O)O)c(CN(CCN(CC(=O)[O-])Cc2c(COP(=O)(O)O)cnc(C)c2O)CC(=O)[O-])c1O.[Mn+2].[Na].[Na].[Na] [Mn-DPDP]							2.8^(5) L.mmol^−1.s^−1	this complex dissociates, releasing manganese which accumulates in liver, pancreas and kidneys	dissociation
6.59^(2) mM^−1 s^−1	53^(3) mM^−1 s^−1	[Cl][Mn][Cl] [MnCl2, reference compound]									
